{"source": "patent US7012042B1", "about": "“Methods and products to protect against root intrusion and plant and root growth” (Growguard, LLC, Inc., priority 2002, dated 2006)", "key": {"[1]": {"assay": "Solubility of Trifluralin in methacrylate plasticizer/monomers", "assay_type": "physicochemical", "conditions": "in ethyl methacrylate and lauryl methacrylate", "procedure": "A novel solution involving the polymerization of the plasticizer that remains within the fiber (FIG. 8) has been developed. Thus, a plasticizer is chosen that also is a monomer. It was determined that Trifluralin is quite soluble in ethyl methacrylate and lauryl methacrylate. […] Thus, technical feasibility is evident up to this point in the process."}, "plant root": {"tested_on": "plant root", "conditions": "cited from earlier work"}}}
{"smiles": "CCCN(CCC)c1c([N+](=O)[O-])cc(C(F)(F)F)cc1[N+](=O)[O-]", "note": "[Trifluralin]", "values": [{"measurement": "solubility", "setting": "[1]", "result": "quite soluble"}, {"measurement": "concentration highly effective in preventing root elongation", "setting": "plant root; 95% of the plants tested, prior efforts", "result": "2–5 ppm"}, {"measurement": "concentration required to inhibit root growth", "setting": "plant root; a few of the plants tested, prior efforts", "result": 10, "unit": "ppm"}, {"measurement": "concentration sufficient to inhibit root growth", "setting": "plant root; in gels and water-saturated soils adjacent to a pipe leakage area", "result": "5–10 ppm"}]}
